Earlier results, collected in patent publication US20130338198A1, “COMPOSITION FOR TREATING DERMATITIS AND ICHTHYOSIS, AND METHOD FOR TREATING DERMATITIS AND ICHTHYOSIS” (Skinvisible Pharmaceuticals, Inc., priority 2010, published 2013).

Details: in vivo

For “Poly(vinylpyrrolidone/1-eicosene) [PVPE]”, the dermal toxicity is given as “no demonstrable dermal toxicity”.
For “Poly(vinylpyrrolidone/1-hexadecene) [PVPH]”, the dermal toxicity is given as “no demonstrable dermal toxicity”.
